Data taken from US20090104177A1, “PEPTIDES FOR INHIBITING THE INTERACTION OF PROTEIN KINASE A AND PROTEIN KINASE A ANCHOR PROTEINS” (FORSCHUNGSVERBUND BERLIN E.V., priority 2004, published 2009).
“Also recorded” adds a separate entry of the source. One block for each molecule: values may come before it. No end group written: not given here.

What was measured:
[1] = target: RIIα subunits of the PKA (Homo sapiens, UniProt P13861); assay: Summary statement on RIIα binding of AKAP18δ-derived peptides; settings: in words
Chain of RIIα subunits of the PKA (P13861 whole entry): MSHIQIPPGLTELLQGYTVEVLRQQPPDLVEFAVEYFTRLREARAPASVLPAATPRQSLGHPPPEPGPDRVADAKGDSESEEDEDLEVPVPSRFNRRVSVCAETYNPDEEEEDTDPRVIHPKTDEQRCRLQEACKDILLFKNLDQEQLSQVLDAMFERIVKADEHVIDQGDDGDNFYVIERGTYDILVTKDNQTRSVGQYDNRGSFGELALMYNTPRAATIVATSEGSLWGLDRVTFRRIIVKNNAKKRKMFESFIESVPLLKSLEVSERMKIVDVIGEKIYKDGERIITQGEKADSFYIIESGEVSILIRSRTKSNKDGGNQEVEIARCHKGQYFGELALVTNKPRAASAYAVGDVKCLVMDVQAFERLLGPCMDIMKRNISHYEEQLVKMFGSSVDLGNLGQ
From the text: We explain this by binding via hydrogen bridges (H bridges) between peptide and RII dimer (see Fig., hydrogen bridges represented by broken lines). Correspondingly, a common feature of the peptides is the minimum number (8) of amino acids forming H bridges.

[2] = target: T1, regulatory RIIα subunits of PKA (Homo sapiens, UniProt P13861); assay: RII overlay of membrane-bound (SPOT) peptides, radiolabelled RIIα as probe, densitometry; format: binding; settings: human RIIα as probe; in words
T1 construct: Prof; Dr. Friedrich W. Herberg, University of Kassel, Germany (obtained from an academic laboratory, not a vendor)
T1 sequence (P13861 whole entry): as above
From the text: (§1) Peptide libraries were synthesized by means of automatic SPOT synthesis on Whatman 50 cellulose membranes according to standard protocols using Fmoc chemistry and AutoSpot Robot ATE 222 (Intavis Bioanalytical Instruments AG, Cologne). The protective groups of the amino acid side chains were removed using a mixture of trifluoroacetic acid (TFA) in dichloromethane (DCM) (Frank, 1992; Kramer and Schneider-Mergener, 1998). For control, spots (about 50 nmol of peptide per spot) were cut from the cellulose membrane, removed from the membrane by treatment with 0.05 M NaOH, and analyzed using HPLC and MALDI-TOF mass spectrometry.
(§2) • 1. Regulatory RIIα (human) and RIIβ (rat) subunits of PKA, obtained from Prof. Dr. Friedrich W. Herberg, University of Kassel, Germany. • 2. Catalytic subunits of PKA, Promega, Mannheim, Germany, Order No. V5161 • 3. [γ-^32P]ATP, 5000 Ci/mmol, Amersham Biosciences, Brunswick, Germany, Order No. AA0018 • 4. Sephadex G 50, medium Pharmacia, Order No. 17-0043-01 • 5. Phosphate-buffered saline (PBS)
(§3) The ATP concentration was adjusted to 10 μM by addition of non-radioactive ATP (addition of 5 μl of a 1 mM solution). The batch was incubated on ice for another 50 min.
(§4) The reaction was quenched by adding dextran blue and removing free nucleotides. The free ATP was removed on a Sephadex G50 column.
(§5) Non-incorporated nucleotides were separated from the RII subunits by fractionation on Sephadex G 50 columns. • 1. Swelling of the Sephadex G 50 material: 20 g thereof was allowed to swell in 400 ml of PBS at room temperature overnight. Non-settled material was subsequently removed with a Pasteur pipette. The swollen material was aliquoted in 50 ml Falcon tubes and stored at 4° C. For preservation, sodium azide was added to make a final concentration of 0.01%. • 2. The material was poured into a 10 ml sterile disposable pipette sealed with a glass sphere. To settle the column bed, 50 ml of PBS containing 1 mg/ml BSA (bovine serum albumin) was allowed to pass.
(§6) Until used, the column was sealed with parafilm at the top thereof. • 3. The labelled RII subunits (500 μl), together with dextran blue (70 μl of a 20 mg/ml solution), were applied on the column (overall volume=570 μl). • 4. The sample was allowed to migrate into the matrix, followed by filling up with PBS. • 5. A short time before the dextran blue was eluted, collection of fractions was begun (2 fractions of 1.5 ml each, the other fractions 1 ml each). • 6. To determine the incorporation of ^32P, 1% (5.7 μl) of sample upstream of the column (corresponding to 1% of the radioactivity employed) and 3 μl of each fraction were used. • 7. The fractions of the first peak including the probe were combined. The incorporation rate in % was calculated and the specific activity (cpm/μg of protein) was determined.
(§7) • 1. The proteins (40 μg) were separated by means of SDS-PAGE and transferred on a PVDF membrane (PVDF: polyvinylidene fluoride) using a semi-dry electroblotting procedure. The membrane-associated proteins were stained with Ponceau S in order to identify the marker proteins on the membrane. Destaining was effected using TBS. • 2. The membrane was incubated in Blotto/BSA at 4° C. for 16 hours:
(§8) • 3. Blotto/BSA was replaced with fresh one and ^32P-labelled RII subunits were added (10^5 cpm/ml). This was incubated for 4-6 h at room temperature. • 4. The membrane was washed for 4×15 min in Blotto/BSA and for 2×10 min in 10 mM potassium phosphate buffer, pH 7.4, 0.15 M NaCl. • 5. RII-binding proteins were detected by exposition on a phosphoimager plate.
(§9) Identification of AKAP18δ-derived peptides inhibiting the interaction of AKAP proteins with the regulatory RIIα and RIIβ subunits of PKA. A: Peptides derived from the PKA binding domain of AKAP18δ were synthesized on two membranes. The membranes were incubated with radiolabelled regulatory RIIα (upper row) or RIIβ subunits (row below) of the PKA (RII overlay experiment). […]

[3] = target: T2, regulatory RIIβ subunits of PKA (Rattus norvegicus, UniProt P12369); assay: RII overlay of membrane-bound (SPOT) peptides, radiolabelled RIIβ as probe, densitometry; format: binding; settings: in words
T2 construct: Prof; Dr. Friedrich W. Herberg, University of Kassel, Germany (obtained from an academic laboratory, not a vendor)
T2 sequence (P12369 whole entry): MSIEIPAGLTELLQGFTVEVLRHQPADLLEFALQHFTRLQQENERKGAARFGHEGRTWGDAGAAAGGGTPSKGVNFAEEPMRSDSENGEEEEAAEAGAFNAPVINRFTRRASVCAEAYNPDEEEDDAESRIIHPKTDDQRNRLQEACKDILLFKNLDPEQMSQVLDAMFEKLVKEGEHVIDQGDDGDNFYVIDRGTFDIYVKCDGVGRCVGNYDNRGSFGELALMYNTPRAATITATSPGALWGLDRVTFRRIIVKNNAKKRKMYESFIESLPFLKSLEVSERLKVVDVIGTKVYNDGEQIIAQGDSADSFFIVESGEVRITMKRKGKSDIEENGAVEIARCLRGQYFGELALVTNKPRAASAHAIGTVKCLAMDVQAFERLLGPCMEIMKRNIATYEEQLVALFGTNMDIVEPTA
From the text: as §1, §2, §3, §4, §5, §6, §7, §8, §9

[4] = target: RIIβ subunits from rats (Rattus norvegicus, UniProt P12369); assay: Surface plasmon resonance measurement of peptide binding to RIIβ
Chain of RIIβ subunits from rats (P12369 whole entry): as above

[5] = target: human RIIα subunits (Homo sapiens, UniProt P13861); assay: Surface plasmon resonance measurement of peptide binding to RIIα
Chain of human RIIα subunits (P13861 whole entry): as the sequence (P13861 whole entry) above

[6] = target: murine RIIα subunit of PKA (Mus musculus, UniProt P12367); settings: Alto et al. (2003); cited from earlier work
Chain of murine RIIα subunit of PKA (P12367 whole entry): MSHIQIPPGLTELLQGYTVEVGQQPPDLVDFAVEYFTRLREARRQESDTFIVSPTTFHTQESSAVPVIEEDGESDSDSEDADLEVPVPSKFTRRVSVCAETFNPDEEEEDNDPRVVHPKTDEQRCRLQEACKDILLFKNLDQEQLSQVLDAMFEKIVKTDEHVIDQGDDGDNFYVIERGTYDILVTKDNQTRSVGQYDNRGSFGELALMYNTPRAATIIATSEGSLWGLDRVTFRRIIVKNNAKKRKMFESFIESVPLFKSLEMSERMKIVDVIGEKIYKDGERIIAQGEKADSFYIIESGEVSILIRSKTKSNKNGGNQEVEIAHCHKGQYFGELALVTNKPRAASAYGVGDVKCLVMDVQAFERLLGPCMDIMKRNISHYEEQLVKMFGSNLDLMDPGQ

[7] = target: T3, regulatory RIIβ subunit of PKA (rat) (rat, UniProt P12369 1-416, 32P-labelled with the catalytic subunit of PKA when used as probe in the RII overlay experiments); assay: RII overlay on SPOT membrane, densitometry; references AKAP18δ-L304T and AKAP18δ-L314E
T3 construct: Radiolabelled probe in RII overlays; format in the surface plasmon resonance measurements is not described; also called RIIβ subunit of PKA from rats
T3 sequence (P12369 whole entry): as the sequence (P12369 whole entry) above

[8] = target: T4, regulatory RIIα subunit of PKA (human) (human, UniProt P13861 1-404, 32P-labelled with the catalytic subunit of PKA when used as probe in the RII overlay experiments); assay: as above
T4 construct: Radiolabelled probe in RII overlays; format in the surface plasmon resonance measurements is not described; also called human RIIα
T4 sequence (P13861 whole entry): as the sequence (P13861 whole entry) above

[9] = target: T3, regulatory RIIβ subunit of PKA (rat); assay: RII overlay on SPOT membrane, densitometry; reference AKAP18δ-wt
[10] = target: T4, regulatory RIIα subunit of PKA (human); assay: as above
[11] = target: T4, regulatory RIIα subunit of PKA (human); assay: RII overlay: SPOT peptides on membrane, probe 32P-labelled RIIα, phosphoimager
[12] = target: T3, regulatory RIIβ subunit of PKA (rat); assay: RII overlay: SPOT peptides on membrane, probe 32P-labelled RIIβ, phosphoimager
[13] = target: T4, regulatory RIIα subunit of PKA (human); assay: RII overlay on SPOT membrane with radiolabelled RIIα
[14] = target: T3, regulatory RIIβ subunit of PKA (rat); assay: RII overlay on SPOT membrane with radiolabelled RIIβ
[15] = target: T3, regulatory RIIβ subunit of PKA (rat); assay: surface plasmon resonance
[16] = target: T4, regulatory RIIα subunit of PKA (human); assay: surface plasmon resonance

Molecule: CC(C)C[C@H](NC(=O)[C@H](CCCNC(=N)N)NC(=O)[C@@H](NC(=O)[C@H](CC(C)C)NC(=O)[C@H](CCC(=O)O)NC(=O)[C@H](C)NC(=O)[C@H](CC(=O)O)NC(=O)[C@H](CCC(=O)O)NC(=O)[C@@H]1CCCN1)C(C)C)C(=O)N[C@@H](CO)C(=O)N[C@@H](CCCCN)C(=O)N[C@@H](CCCNC(=N)N)C(=O)N[C@@H](CC(C)C)C(=O)N[C@H](C(=O)N[C@@H](CCC(=O)O)C(=O)N[C@@H](CC(N)=O)C(=O)N[C@@H](C)C(=O)N[C@H](C(=O)N[C@@H](CCC(=O)O)C(=O)N[C@@H](CCCCN)C(=O)N[C@@H](C)C(=O)N[C@H](C(=O)N[C@@H](CCC(N)=O)C(=O)N[C@@H](CCC(N)=O)C(=O)N[C@@H](Cc1ccc(O)cc1)C(=O)O)C(C)C)C(C)C)C(C)C [AKAP18δ-L314E]
RIIα binding compared with peptides derived from natural AKAPs [1]: bind stronger than any other peptide derived from natural AKAPs | binding to RIIα subunits in RII overlay [2]: stronger binding; also recorded: bind strongly | binding to RIIβ subunits in RII overlay [3]: stronger binding; also recorded: bind strongly

Molecule: AKAPIS [peptide developed by Alto et al. (2003); IS, in silico, reference compound]
RIIβ binding KD [4]: no binding | binding to RIIα subunits in RII overlay [2]: barely bind | RIIα binding KD [5]: no binding | binding to RIIβ subunits in RII overlay [3]: barely bind | Kd [6]: 0.45 nM | affinity increased compared to the Ht31 peptide [6]: 5 times

Molecule: KGADLIEEAASRIVDAVIEQVKAAG [Ht31, reference compound]
Kd [4]: 35 nM | Kd [5]: 15 nM | Kd [6]: 2.2 nM

B1: A18δRIIαRn3 (10/12) (peptide)
peptide: ANDARLVRLPKRLVENAVLKAVQQY
notes: Member of the substitution library of peptide 7 (row 10, peptide 12); also called peptide 10/12; No. FF
binding result [13]: binds | binding result [14]: no binding

B2: A18δRIIβRn1 (21/4) (peptide)
peptide: ANDARLVRLSKRLVENAVLKFVQQY
notes: Member of the substitution library of peptide 7 (row 21, peptide 4); also called peptide 21/4; A18δRIIβRnl
binding result [13]: no binding | binding result [14]: binds

B4: AKAP18δ-PP (peptide)
peptide: PEDAELVRLSKRLPENAPLKAVQQY
notes: Double proline-substituted negative control; also called AKAP18delta-PP
binding result [15]: no binding | binding result [16]: no binding

More lines, main results first:

binding to RIIα subunits in RII overlay [2]: weaker | binding to RIIβ subunits in RII overlay [3]: weaker
Molecule: EPEDAELVRLSKRLVENAVLKAVQQYLEETQ (listed as Homo sapiens) [AKAP18δ-RI]
RIIα binding compared with peptides derived from natural AKAPs [1]: bind stronger than any other peptide derived from natural AKAPs

Kd [4]: 35 nM | Kd [5]: 0.3 to 0.9 nM
Molecule: PEDAELVRTSKRLVENAVLKAVQQY [AKAP18δ-L304T]
RIIα binding compared with peptides derived from natural AKAPs [1]: bind stronger than any other peptide derived from natural AKAPs | binding to RIIα subunits in RII overlay [2]: stronger binding; also recorded: bind strongly | binding to RIIβ subunits in RII overlay [3]: stronger binding; also recorded: bind strongly

fold weaker binding than AKAP18δ-L304T and AKAP18δ-L314E [7]: 5 to 6 fold | fold weaker binding than AKAP18δ-L304T and AKAP18δ-L314E [8]: 5 to 6 fold | fold weaker binding than AKAP18δ-wt [9]: 5 fold | fold weaker binding than AKAP18δ-wt [10]: 5 fold
Molecule: Ht31 (peptide)

binding result [11]: binds | binding result [12]: binds
Molecule: EPEDAELVRLSKRLVENAVLKAVQQYLEETQ (also called Akap18delta-RI; No. AA) [AKAP18δ-RI]

binding result [15]: no binding | binding result [16]: no binding
B3: AKAP18δ-P (peptide)
peptide: PEDAELVRLSKRLPENAVLKAVQQY
notes: Proline-substituted negative control; also called AKAP18delta-P; No. X
